According to the Kinase Knowledgebase extract (Sharma et al. 2016):

Target: CDK2 (UniProt P24941)
Assay: Enzyme Assay

IC50 [nM] | Compound
< 500 | CN1CCN(c2ccc(C(=O)Nc3n[nH]c4cc(C(=O)NCc5ccoc5)sc34)cc2)CC1
< 500 | Cc1c(C(=O)NCc2ccc(F)cc2)sc2c(NC(=O)c3cccs3)n[nH]c12
< 500 | O=C(Nc1n[nH]c2cc(C(=O)NCc3ccccc3)sc12)c1cc(F)cc(F)c1
< 500 | CN1CCN(c2ccc(C(=O)Nc3n[nH]c4cc(C(=O)NCc5ccco5)sc34)cc2)CC1
< 500 | C=CCNC(=O)c1cc2[nH]nc(NC(=O)NCc3ccccc3)c2s1
< 500 | CCCCNC(=O)c1cc2[nH]nc(NC(=O)c3cccs3)c2s1
< 500 | CCCCNC(=O)c1cc2[nH]nc(NC(=O)CCCC)c2s1
< 500 | CCNC(=O)c1cc2[nH]nc(NC(=O)c3ccc(N4CCN(C)CC4)cc3)c2s1
< 500 | CCCCNC(=O)c1cc2[nH]nc(NC(=O)C3CC3)c2s1
< 500 | O=C(Nc1n[nH]c2cc(C(=O)O)sc12)c1ccc(N2CCOCC2)cc1

More lines, now with the values behind:

Compound | IC50 [nM]
CN1CCN(C(=O)c2cc3[nH]nc(NC(=O)c4ccc(F)cc4)c3o2)CC1 | < 500
CCC(NC(=O)c1cc2[nH]nc(NC(=O)c3ccc(N4CCN(C)CC4)cc3)c2o1)c1ccccc1 (configuration not stated) | < 500
CCC(NC(=O)c1cc2[nH]nc(NC(=O)c3ccc(N4CCOCC4)cc3)c2o1)c1ccccc1 (configuration not stated) | < 500
CN1CCN(C(=O)c2cc3[nH]nc(NC(=O)c4ccc(F)cc4)c3s2)CC1 | < 500
O=C(Nc1n[nH]c2cc(C(=O)O)oc12)c1ccc(N2CCOCC2)cc1 | < 500
C[C@@H](NC(=O)c1cc2c(NC(=O)c3ccc(N4CCN(C)CC4)cc3)n[nH]c2s1)c1ccccc1 | < 500
Cc1c(C(=O)NCc2ccc(F)cc2)sc2c(NC(=O)c3ccc(F)cc3)n[nH]c12 | < 500
